From patent US8354265B2, “Chemicals promoting the growth of N-acylhomoserine lactone-degrading bacteria” (Centre National de la Recherche Scientifique, priority 2007, dated 2013)

How the values were obtained:
[1] = system: bacteria recovered from the consortia; experiment: NAHL production and inactivation by isolates recovered from the consortia, with rrs identification; format: cell-based
[2] = system: NAHL-degrading rhizobacteria; experiment: Diversity of NAHL-degrading rhizobacteria after 6CL and GCL treatments, rrs sequencing (Table 2); format: in vivo, Solanum tuberosum
Description: (§1) The non sterile batches (40×60×8 cm) contained 13 L of the nutritive solution Hydrobloom (Cellmax, UK) with Nitrogen at 0.80 g/L, Phosphore at 0.56 g/L and Potassium at 1.48 g/L as major components. The solution was diluted from a concentrated stock solution (×250) with non sterile water from the public water system. One hundred plants of Solanum tuberosum var. Allians, which were recovered from cultures performed under sterile conditions, were placed into holes (3 cm space to each other) of batch covers. Planted batches were placed in the greenhouse (Comité Nord Plants de Pomme de Terre, Bretteville-du-Grand-Caux) under natural light at 10-15° C. (night) and 25-30° C. (day). […] An untreated batch was used as a control. One gram of roots (fresh weight) was resuspended in 10 mL of sterile MgSO4 10 mM, diluted and spread on TSA and King B plates to isolate total cultivable bacteria and fluorescent Pseudomonas, respectively. Three samples were analyzed from each batch at each time D0, D14 and D28; from each sample, thirty isolates from TSA plates and thirty fluorescent isolates from King B plates were individually tested from production and inactivation of NAHL signal.
The 5′-end of the rrs gene was amplified with primers pA (5′-[…]) (SEQ ID NO:1) and 518r (5′-[…]) (SEQ ID NO:2), and sequenced with pA primer by GenomeExpress (Meylan, France). At least 400 bp were submitted to the NCBI database. Although some sequence comparisons authorized identification of isolates at the species level, only the genus level was retained in this study for homogeneity.
The isolates were identified by rrs-sequencing (Table 2). At D0, most of the NAHL-degrading isolates were identified as Delftia. However, at D14 and D28, the Agrobacterium isolates dominated in untreated batches, while they were not detected in the treated batches. In those, the more frequently counted bacteria were Delftia and Rhodococcus.

[3] = system: bacterial isolates from untreated and GCL-treated batches; experiment: Assimilation of GCL as sole carbon source versus NAHL inactivation by isolates (FIG. 10); format: cell-based; conditions: untreated and GCL-treated (0.1 and 0.4 mL/L) batches; D14 and D28
Description: Each disk represents 90 isolates from untreated or GCL-treated (0.1 and 0.4 mL/L) batches 14 days (D14) and 28 days (D28) after the beginning of the treatment.
(§2) Bacterial isolates grown in 96-microwell plates were individually tested from production of NAHL with the A. tumefaciens biosensor NT1 (pZNLR4) and the inactivation of the C6-HSL signal, as described previously (d'Angelo-Picard et al. 2004).
Results were cross-examined with respect to the ability of each strain to inactivate (or not) NAHL signal.

[4] = system: bacterial populations of potato roots; experiment: DGGE analysis of bacterial populations associated with roots; format: in vivo, Solanum tuberosum; conditions: D14 and D28; 0.1 and 0.4 mL/L, most visible at 0.4 mL/L
Description: FIG. 11: DGGE analyses. […] Numbered bands on pictures were analyzed by sequencing. For each sequence or group of sequences, one of the closest rrs sequences was indicated. It is identified by its Genbank number, the similarity indice (SI) (calculated at Ribosomal Database Project http://rdp.cme.msu.edu/), and the name and taxonomical position of the bacteria of origin (Bact, Bacteria; BC, Bacteroidetes/Chlorobi group; Firm, Firmicutes; α,α-proteobacteria; β,β-proteobacteria; and γ,γ-proteobacteria).
The structure of the bacterial population associated with roots system (ca. 10 g) was analyzed by DGGE of PCR-amplified rrs region (position 341-534 of E. coli sequence). Two samples were analyzed from each batch. The DGGE analysis was performed by Microbial Insights (Rockford, Tenn., USA), as previously described (d'Angelo-Picard et al., 2004). Band positions in each line were converted to 0 (absence) and 1 (presence) value and assembled in a matrix. Profile similarity was calculated with the Dice algorithm using DistAFLP software (http://pbil.univ-lyon1.fr/ADE-4/microb). Sequence identification of selected bands was performed using the sequence match facility of the Ribosomal Database Project (http://rdp.cme.msu.edu/), according to NCBI taxonomy (http://www.ncbi.nlm.nih.gov/Taxonomy/). […]

[5] = system: NAHL-degrading rhizobacteria of potato rhizosphere; experiment: Preliminary experiment in planted hydroponic batches: level and diversity of NAHL-degrading rhizobacteria (Table 1); format: in vivo, Solanum tuberosum var. Allians
Description: as §1, §2
At least 400 bp were submitted to the NCBI database.

[6] = system: bacterial consortia from unplanted soil; experiment: C6-HSL inactivation by bacterial consortia enriched from unplanted soil on the compound as sole carbon source; format: cell-based; conditions: soil and rhizospheric samples; among 25 assayed molecules
[7] = system: NAHL-degrading and NAHL-producing bacteria of potato rhizosphere; experiment: Two independent analyses of 6CL and GCL treatments on planted batches (FIG. 7); format: in vivo, Solanum tuberosum var. Allians
Excerpt: FIG. 7: Percentage of NAHL-degrading and NAHL-producing strains in potato rhizosphere. […] An untreated batch was used as a control in the two independent sets of experiments. The mean of three replicates is shown. Statistically different values (Student t test; 0.05) are noted by different letters.
as §1, §2
An untreated batch was used as a control.

[8] = system: bacterial consortia; experiment: Inactivation of C6-HSL and OC8-HSL by mannitol, 6CL, GCL and HTN consortia; format: cell-based
Excerpt: The Mannitol-, 6CL-, GCL-, and HTN-consortia were compared for their capacity to inactivated OC8-HSL, the major NAHL produced by the plant pathogen Erwinia carotovora subsp. atroseptica 6276, as well as for their biocontrol activity against this pathogen in potato maceration assay.

`CCC1CCC(=O)O1` (stereo not drawn) [GCL, gamma-caprolactone] was tested, and the “NAHL-inactivating bacteria recovered from consortia” value [1] was “recovered”, the “NAHL-degrading isolates related to Chryseobacterium” value ([1]; 6CL and GCL consortia together) was 10% and the “NAHL-degrading isolates related to Delftia” value ([1]; 6CL and GCL consortia together) was 80 % of the identified strains. The “NAHL-degrading isolates related to Ralstonia” value ([1]; 6CL and GCL consortia together) was 3%, the “NAHL-degrading isolates related to Rhodococcus” value ([1]; 6CL and GCL consortia together) was 7% and the “NAHL-producing bacteria among isolates of the consortia” value ([1]; 280 isolates from 280 independent enrichments) was “none”. The “rrs-identified NAHL-degraders: Delftia” value ([2]; D14 and D28, 0.1 mL/L) was 16, the “rrs-identified NAHL-degraders: Others” value ([2]; D14 and D28, 0.1 mL/L) was 2 and the “rrs-identified NAHL-degraders: Pseudomonas” value ([2]; D14 and D28, 0.1 mL/L) was 1. For the same compound, the “rrs-identified NAHL-degraders: Rhizobium” value ([2]; D14 and D28, 0.1 mL/L) was 1, the “rrs-identified NAHL-degraders: Rhodococcus” value ([2]; D14 and D28, 0.1 mL/L) was 60 and the “rrs-identified NAHL-degraders: Delftia” value ([2]; D14 and D28, 0.4 mL/L) was 9. For the same compound, the “rrs-identified NAHL-degraders: Pseudomonas” value ([2]; D14 and D28, 0.4 mL/L) was 1, the “rrs-identified NAHL-degraders: Rhodococcus” value ([2]; D14 and D28, 0.4 mL/L) was 96 and the “percentage of A. tumefaciens isolates among the NAHL-degrading rhizobacteria” value ([2]; after GCL-treatments) was “decrease”. For the same compound, the “occurrence of bacteria both assimilating GCL and inactivating NAHL” value [3] was “only detected in the treated batches”, the “change of bacterial populations by DGGE” value [4] was “drastic remodelling of bacterial populations” and the “Log CFU/gram of root (fresh weight)” value ([5]; D0 (before treatment)) was 8.0 ± 7.5 Log CFU/gram of root (fresh we. For the same compound, the “NAHL degraders (%)” value ([5]; D0 (before treatment)) was 16.7 ± 0.1 %, the “NAHL producers (%)” value ([5]; D0 (before treatment)) was 6.7 ± 1.0% and the “rrs-identified NAHL-degraders: Delftia” value ([5]; D0, of 8 isolates) was 3. For the same compound, the “rrs-identified NAHL-degraders: Pseudomonas” value ([5]; D0, of 8 isolates) was 2, the “rrs-identified NAHL-degraders: Rhodococcus” value ([5]; D0, of 8 isolates) was 3 and the “Log CFU/gram of root (fresh weight)” value ([5]; D28, 0.1 mL/L) was 10.5 ± 9.8 Log CFU/gram of root (fresh we. The “NAHL degraders (%)” value ([5]; D28, 0.1 mL/L) was 33.3 ± 4.0 %, the “NAHL producers (%)” value ([5]; D28, 0.1 mL/L) was 11.1 ± 1.5% and the “identified genera of NAHL-degrading bacteria” value ([5]; D28, 0.1 mL/L) was 3. For the same compound, the “rrs-identified NAHL-degraders: Bacillus” value ([5]; D28, 0.1 mL/L, of 8 isolates) was 1, the “rrs-identified NAHL-degraders: Delftia” value ([5]; D28, 0.1 mL/L, of 8 isolates) was 2 and the “rrs-identified NAHL-degraders: Rhodococcus” value ([5]; D28, 0.1 mL/L, of 8 isolates) was 5. For the same compound, the “growth stimulation of NAHL-degrading bacteria after enrichment procedures” value [6] was “stimulated the growth of NAHL-degrading bacteria”, the “cell density (CFU/g of root)” value ([7]; 14 days after application at 0.4 mL/L, two experiments) was “consistently increased” and the “level of NAHL-degrading bacteria among fluorescent Pseudomonads” value ([7]; after GCL-treatments) was “no modification”. For the same compound, the “percentage of NAHL-degrading bacteria among total cultivable bacteria” value ([7]; applied to hydroponic plant cultures (FIG. 7)) was “significant increase”, the “speed of C6-HSL signal inactivation versus Mannitol consortia” value [8] was “inactivated more rapidly” and the “speed of OC8-HSL signal inactivation versus Mannitol consortia” value [8] was “inactivated more rapidly”.
